Reference: US10653667B2, “Drug for preventing, treating or preventing metastasis of giant cell tumor that occurs in bone or soft parts, chondrosarcoma, or osteosarcoma, local injection for arterial embolization, and artificial bone” (NIPPON CHEMIPHAR CO., LTD, priority 2013, dated 2020)

How the values were obtained:
[1] = tested on: GCTB cultured cells of the case 1; assay: Fat cell differentiation of GCTB cultured cells (HCS Lipid TOX Green Neutral Lipid Stain); format: cell-based, human; conditions: zaltoprofen 10, 50, 100 μM; fat cell differentiation-inducing medium 7 to 14 days
Protocol: It has been reported that PPARγ is a transcription factor indispensable for fat cell differentiation. Therefore, the GCTB cultured cells of the aforementioned case 1 were cultured on chamber cover slide glass, and when they reached confluent, zaltoprofen was added to the cells at various concentrations (10, 50, and 100 μM). From 24 hours thereafter, the cells were cultured in a fat cell differentiation-inducing medium (STREMPRO Adipogenesis Differentiation Kit, Invitrogen) for 7 to 14 days, and differentiation into fat cells was analyzed with HCS Lipid TOX Green Neutral Lipid Stain (Invitrogen) (FIGS. 8 and 9).

[2] = tested on: giant cell tumor of bone (GCTB); assay: Apoptosis analysis of operational excision sample of GCTB patient administered with zaltoprofen; format: in vivo, human
Protocol: An operational excision sample of a person who had been administered with 3 tablets per day of the zaltoprofen tablets, Soleton Tablet 80 (generic name: zaltoprofen, 80 mg, Nippon Chemiphar) for about 28 days for pain due to the tumor, and then subjected to the operation, and an operational excision sample of giant cell tumor of bone extracted from a patient with giant cell tumor of bone not administered with zaltoprofen (case in which tumor was excised by usual surgical operation according to standard therapy) as a control were subjected to caspase 3 staining and Tunel assay, and analyzed for the presence or absence of apoptosis. The caspase 3 protein was fluorescently detected by using Anti-ACTIVE Caspase-3-Ab (Roche) ([…]) (12-4739-81) as the primary antibody, and Donkey F2 Fragment anti-Rabbit IgG PE of eBioscience as the secondary antibody. Observation was performed with a fluorescence microscope (BZ-9000) produced by Keyence (FIG. 10).

[3] = tested on: PPARγ expression in GCTB cultured cells; conditions: GCTB derived from a patient; inventors' earlier reports; cited from earlier work
HOS cells = assay: Suppression of proliferation of human bone sarcoma cell line HOS (CCK-8); format: cell-based; conditions: 72 hours
Protocol: Cells of the human bone sarcoma cell line, HOS (purchased from American Type Culture Collection), were cultured in the same manner as that of Example 1 until they became sub-confluent. Zaltoprofen was added to the cells at concentrations of 25, 50, 100, 200 and 400 μM, color development was performed with Cell Counting Kit-8 (CCK-8, Dojindo) 72 hours thereafter, and absorbance was measured at 450 nm further 3 hours thereafter (FIG. 72).

[4] = tested on: GCTB cultured cells of the case 1; assay: Tunel assay and caspase 3 staining of GCTB cultured cells (apoptosis); format: cell-based, human; conditions: zaltoprofen 100 and 200 μM; 8 hours and 24 hours
Protocol: Further, the aforementioned GCTB cultured cells of the case 1 mentioned above were cultured on chamber cover slide glass, and zaltoprofen was added at different concentrations (100, and 200 μM) 24 hours afterward. Then, 8 hours and 24 hours afterward, the cells were fixed with 4% paraformaldehyde, staining with caspase 3 and Tunel assay were performed, and presence or absence of apoptosis was analyzed. In the Tunel assay, fragmented DNAs produced in the process of apoptosis were detected by the TdT-mediated dUTP nick end labeling method (TUNEL). Observation was performed with a fluorescence microscope (BZ-9000) of Keyence, and positive images for each concentration were quantitatively observed (FIGS. 2 to 5).

[5] = GCTB patient, 3 tablets per day Soleton Tablet 80 for about 28 days, vs patient not administered

## CC(C(=O)O)c1ccc2c(c1)CC(=O)c1ccccc1S2 (stereo not drawn) [zaltoprofen]
[1]
  positive images obtained with HCS Lipid TOX Green Neutral Lipid Stain (differentiation into fat cells): increased in a zaltoprofen concentration-dependent manner
[2]; GCTB patient who had taken zaltoprofen over four weeks at 240 mg per day, fat cell-like cells existed instead
  cells found in excised bone tissues at ablative operation: cells characteristic to bone giant cells did not exist in the excised bone tissues
[2]; [5]
  Tunel-positive cells in excision sample: could be confirmed
  caspase 3-positive cells in excision sample: could be confirmed
[3]
  expression of PPARγ in the cells of giant cell tumor of bone: promoted expression of PPARγ
HOS cells; 400 μM zaltoprofen
  suppression of proliferation of HOS cells: about 60%
HOS cells; at 100 μM, 200 μM and 400 μM, concentration-dependent (25-400 μM tested)
  suppression of cell proliferation of HOS cells: suppressed
[4]
  Tunel-positive ratio: concentration and administration time-dependent increases
  caspase 3-positive ratio: concentration and administration time-dependent increases
